The source made the active and inactive calls. The rule behind the calls is not given here.
Tests used:
MDA-MB-231 [1] = test: Induction of apoptosis in human MDA-MB-231 cells assessed as reduction in Mcl-1 protein expression measured after 24 hrs by Western blot analysis; assay type: functional, cell-based; settings: dose 7.8-500 nM
MDA-MB-231 [2] = test: Induction of apoptosis in human MDA-MB-231 cells assessed as early apoptotic cells at 31.25 nM incubated for 24 hrs by annexin V-FITC/PI staining based flow cytometry analysis (reference value: 2.03%); assay type: functional
MDA-MB-231 [3] = test: Antitumor activity against human MDA-MB-231 cells xenografted in BALB/c nude mouse assessed as reduction in RXRalpha protein expression at 25 mg/kg/day, ip administered for 15 days by immunohistochemical analysis; assay type: functional, organism-based; settings: time 15.0 day
[4] = target: T1, Retinoic acid receptor RXR-alpha (Homo sapiens, UniProt P19793); test: Binding affinity to RXRalpha LBD (unknown origin) assessed as dissociation constant by fluorescence quenching analysis
T1 sequence (P19793 whole entry): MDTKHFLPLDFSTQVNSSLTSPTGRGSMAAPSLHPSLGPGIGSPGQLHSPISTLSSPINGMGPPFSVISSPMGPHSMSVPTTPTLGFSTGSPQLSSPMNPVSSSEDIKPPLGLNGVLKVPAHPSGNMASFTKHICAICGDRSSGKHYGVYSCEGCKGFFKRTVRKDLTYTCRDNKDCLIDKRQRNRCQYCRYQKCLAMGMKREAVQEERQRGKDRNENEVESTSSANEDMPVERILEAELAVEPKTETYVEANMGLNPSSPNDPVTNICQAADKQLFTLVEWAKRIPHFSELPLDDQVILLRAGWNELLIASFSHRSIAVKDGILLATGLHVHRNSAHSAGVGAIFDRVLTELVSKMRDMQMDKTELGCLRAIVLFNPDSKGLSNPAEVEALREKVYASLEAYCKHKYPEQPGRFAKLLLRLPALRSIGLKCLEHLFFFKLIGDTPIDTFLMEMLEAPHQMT

A549 [5] = test: Induction of cell cycle arrest in human A549 cells assessed as accumulation of cells at S phase at 125 nM incubated for 12 hrs by flow cytometry analysis (reference value: 31.81%); assay type: functional
A549 [6] = test: Induction of apoptosis in human A549 cells assessed as live cells at 31.25 nM incubated for 24 hrs by annexin V-FITC/PI staining based flow cytometry analysis (reference value: 93.2%); assay type: functional
A549 [7] = test: Induction of cell cycle arrest in human A549 cells assessed as accumulation of cells at G2 phase at 125 nM incubated for 12 hrs by flow cytometry analysis (reference value: 8.62%); assay type: functional
MDA-MB-231 [8] = test: Antitumor activity against human MDA-MB-231 cells xenografted in BALB/c nude mouse assessed as nuclear shrinkage in tumor at 25 mg/kg/day, ip administered for 15 days by immunohistochemical analysis; assay type: functional, organism-based; settings: time 15.0 day
MDA-MB-231 [9] = test: Induction of apoptosis in human MDA-MB-231 cells assessed as live cells at 62.5 nM incubated for 24 hrs by annexin V-FITC/PI staining based flow cytometry analysis (reference value: 91.3%); assay type: functional
MDA-MB-231 [10] = test: Induction of apoptosis in human MDA-MB-231 cells assessed as late apoptotic cells at 125 nM incubated for 24 hrs by annexin V-FITC/PI staining based flow cytometry analysis (reference value: 5.93%); assay type: functional
A549 [11] = test: Induction of apoptosis in human A549 cells assessed as dead cells at 31.25 nM incubated for 24 hrs by annexin V-FITC/PI staining based flow cytometry analysis (reference value: 0.75%); assay type: functional
MDA-MB-231 [12] = test: Inhibition of colony formation in human MDA-MB-231 cells at 62.5 nM incubated for 48 hrs followed by replacement with normal culture medium and measured after […] by crystal violet staining based assay relative to control; assay type: functional
MDA-MB-231 [13] = test: Induction of mitotic arrest in human MDA-MB-231 cells assessed as disordered spindle formation at 62.5 nM incubated for 12 hrs by alpha-tubulin/DAPI staining based confocal microscopic analysis; assay type: functional, cell-based
MDA-MB-231 [14] = test: Induction of cell cycle arrest in human MDA-MB-231 cells assessed as accumulation of cells at G1 phase at 31.25 nM incubated for 12 hrs by flow cytometry analysis (reference value: 43.2%); assay type: functional
A549 [15] = test: Induction of apoptosis in human A549 cells assessed as early apoptotic cells at 31.25 nM incubated for 24 hrs by annexin V-FITC/PI staining based flow cytometry analysis (reference value: 0.78%); assay type: functional
MDA-MB-231 [16] = test: Induction of cell cycle arrest in human MDA-MB-231 cells assessed as accumulation of cells at G1 phase at 125 nM incubated for 12 hrs by flow cytometry analysis (reference value: 43.2%); assay type: functional
A549 [17] = test: Induction of cell cycle arrest in wild type human A549 cells assessed as accumulation of cells at G1 phase at 125 nM incubated for 12 hrs by DAPI staining based flow cytometry analysis (reference value: 36.89 %); assay type: functional
MDA-MB-231 [18] = test: Induction of apoptosis in human MDA-MB-231 cells assessed as increase in cleaved PARP expression measured after 24 hrs by Western blot analysis; assay type: functional, cell-based; settings: dose 7.8-500 nM
MDA-MB-231 [19] = test: Induction of cell cycle arrest in human MDA-MB-231 cells assessed as accumulation of cells at S phase at 125 nM incubated for 12 hrs by flow cytometry analysis (reference value: 40.89%); assay type: functional
MDA-MB-231 [20] = test: Induction of cell cycle arrest in human MDA-MB-231 cells assessed as accumulation of cells at S phase at 15.625 nM incubated for 12 hrs by flow cytometry analysis (reference value: 40.89%); assay type: functional; settings: 0.01562 µM
[21] = target: T2, Retinoic acid receptor RXR-alpha (Homo sapiens) (UniProt P19793); test: Antagonist activity at RXRalpha (unknown origin) transfected in human HeLa cells at 31.25 uM incubated for 24 hrs by dual luciferase reporter assay; assay type: cell-based; settings: filed as antagonist
T2 sequence (whole entry): T1 sequence (P19793 whole entry)

MDA-MB-231 [22] = test: Induction of RXRalpha-mediated mitotic arrest in human MDA-MB-231 cells assessed as accumulation of pRXRalpha protein at 7.8 to 500 nM measured after 24 hrs by Western blot analysis; assay type: functional, cell-based; settings: dose 7.8-500 nM
[23] = Elimination half life in Sprague-Dawley rat at 25 mg/kg, ip measured for 48 hrs by LC-MS/MS analysis; assay type: ADME, organism-based; settings: in vivo, read-out: beta t1/2 (converted)
MDA-MB-231 [24] = test: Induction of apoptosis in human MDA-MB-231 cells assessed as late apoptotic cells at 62.5 nM incubated for 24 hrs by annexin V-FITC/PI staining based flow cytometry analysis (reference value: 5.93%); assay type: functional
MDA-MB-231 [25] = test: Induction of apoptosis in human MDA-MB-231 cells assessed as live cells at 31.25 nM incubated for 24 hrs by annexin V-FITC/PI staining based flow cytometry analysis (reference value: 91.3%); assay type: functional
A549 [26] = test: Induction of apoptosis in human A549 cells assessed as early apoptotic cells at 62.5 nM incubated for 24 hrs by annexin V-FITC/PI staining based flow cytometry analysis (reference value: 0.78%); assay type: functional
MDA-MB-231 [27] = test: Effect on Nur77 protein expression in human MDA-MB-231 cells at 7.8 to 500 nM measured after 24 hrs by Western blot analysis; assay type: functional, cell-based; settings: dose 7.8-500 nM
A549 [28] = test: Induction of cell cycle arrest in human A549 cells assessed as accumulation of cells at G1 phase at 62.5 nM incubated for 12 hrs by flow cytometry analysis (reference value: 59.57%); assay type: functional

## O=C(/C=C/c1ccccc1)Nc1cc(-c2ccnc(N3CCC(CO)CC3)c2)ccn1
MDA-MB-231 [1]
  Activity: Dose-Dependent Effect
MDA-MB-231 [2]
  Activity: 2.24%
MDA-MB-231 [3]
  Activity: Active
[4]
  Kd: 147 nM
A549 [5]
  Activity: 37.15%
A549 [6]
  Activity: 70.9%
A549 [7]
  Activity: 46.39%
MDA-MB-231 [8]
  Activity: Active
MDA-MB-231 [9]
  Activity: 69.2%
MDA-MB-231 [10]
  Activity: 19.2%
A549 [11]
  Activity: 3.98%
MDA-MB-231 [12]
  inhibition at 0.0625 µM: 100%
MDA-MB-231 [13]
  Activity: Active
MDA-MB-231 [14]
  Activity: 42.63%
A549 [15]
  Activity: 6.28%
MDA-MB-231 [16]
  Activity: 0.07%
A549 [17]
  Activity: 2.24%
MDA-MB-231 [18]
  Activity: Dose-Dependent Effect
MDA-MB-231 [19]
  Activity: 14.05%
MDA-MB-231 [20]
  Activity: 41.47%
[21]
  Activity: Active
MDA-MB-231 [22]
  Activity: Active
[23]
  half-life: 2.23 h
MDA-MB-231 [24]
  Activity: 15.2%
MDA-MB-231 [25]
  Activity: 82.2%
A549 [26]
  Activity: 11.4%
MDA-MB-231 [27]
  Activity: inactive
A549 [28]
  Activity: 59.43%

Reference: ChEMBL document CHEMBL5321216, “Discovery of bipyridine amide derivatives targeting pRXRα-PLK1 interaction for anticancer therapy” (Eur J Med Chem, 2023)
